Experimental data taken from US6525077B2, “Cyanoguanidine prodrugs” (Leo Pharmaceutical Products Ltd. A/S, priority 2000, dated 2003).
Values after ≈ are worked out from the molar mass of the structure shown.

Key:
Solubility in water = format: physicochemical
Description: The solubility in water of compounds of the present invention was determined by shaking the compounds in water for one hour at room temperature followed by filtration and determination of the concentration of the compound in the filtrate by HPLC. […]

[1] = system: human lung and breast cancer cell lines; conditions: cited from earlier work
[2] = system: human lung cancer tumour xenograft; conditions: cited from earlier work
[3] = system: normal human endothelial cells; conditions: cited from earlier work
human tumour cells = conditions: nude mice transplanted with human tumour cells, also paclitaxel-resistant tumour cells; cited from earlier work

| Structure (SMILES) | Solubility in water (Solubility in water) [mg/mL] | solubility at 1 h (Solubility in water; thermodynamic from solid, shaken in water for one hour at room temperature, filtration, filtrate by HPLC) [µg/mL] | solubility (in words) (Solubility in water; water) | antiproliferative activity in vitro [1] | antitumour activity in the nude mouse model [2] | antiproliferative activity on normal human endothelial cells [3] | antitumour activity in vivo (human tumour cells) |
| --- | --- | --- | --- | --- | --- | --- | --- |
| COCCOCCOCCOCC(=O)OC[n+]1ccc(NC(=NC#N)NCCCCCCOc2ccc(Cl)cc2)cc1.[Cl-] [Example 8, 1-[2-(2-(2-Methoxyethoxy)-ethoxy)-ethoxy-acetoxymethyl]-4-[N′-cyano-N″-(6-(4-chlorophenoxy)-hexyl)-N-guanidino]-pyridinium chloride] | >50 | – | – | – | – | – | – |
| COCCOCCOCCOCCOC(=O)OC[n+]1ccc(NC(=NC#N)NCCCCCCOc2ccc(Cl)cc2)cc1.[Cl-] [Example 9, 1-[2-(2-(2-(2-Methoxyethoxy)-ethoxy)-ethoxy)-ethoxy-carbonyloxymethyl]-4-[N′-cyano-N″-(6-(4-chlorophenoxy)-hexyl)-N-guanidino]-pyridinium chloride] | >50 | – | – | – | – | – | – |
| N#CNC(=Nc1ccncc1)NCCCCCCOc1ccc(Cl)cc1 [N-(6-(4-chlorophenoxy)-hexyl)-N′-cyano-N″-(4-pyridyl)-guanidine] | – | 0.2 (≈ 0.538 µM) | for all practical purposes insoluble | high antiproliferative activity | potent antitumour activity | considerably less antiproliferative activity | substantial antitumour activity |
